# Patent publication US20050281750A1, “Sprayable compositions comprising a combination of pharmaceutical active agents, an alcohol phase, at least one volatile silicone and a non-volatile oily phase” (GALDERMA S.A., priority 2004, published 2005)
# Experiments:
# Type in all cases: physicochemical
# [1] = Stability of calcitriol in ethanol/cyclopentasiloxane (HPLC assay against a reference substance); details: for Measured concentration of calcitriol in % relative to T0: 30 ppm in 75% absolute ethanol + 25% cyclopentasiloxane, 0.02% BHT
# Text: (§1) Calcitriol stability data were generated in various excipients, including ethanol 100, an ethanol 100 (75%)/cyclomethicone 5 (25%) mixture, or oils such as Miglyol 812 and Cetiol SN. • a) Stability of Calcitriol in Ethanol: b) Stability of Calcitriol in Ethanol/Cyclopentasiloxane: Solution of 30 ppm of calcitriol in qsp 75% of absolute ethanol+25% of cyclopentasiloxane, in the presence of 0.02% of BHT. Technique of HPLC assay against a reference substance. At the starting time (T0) the composition is considered to comprise 100% of calcitriol. Measured concentration of calcitriol in % relative to T0: […]
# [2] = Stability of calcitriol in ethanol (HPLC assay against a reference substance); details: for Measured concentration of calcitriol in % relative to T0: 30 ppm in absolute ethanol, 0.02% BHT
# Text: as §1, with “Ethanol:” for “Ethanol: b) Stability of Calcitriol in Ethanol/Cyclopentasiloxane:”, “qsp 100%” for “qsp 75%”, “absolute ethanol,” for “absolute ethanol+25% of cyclopentasiloxane,”
# [3] = Stability of calcitriol in Miglyol 812 (caprylic/capric triglycerides) (HPLC assay); details: for Measured concentration of calcitriol in % relative to T0: 30 ppm in Miglyol 812, 0.4% BHT
# Text: as §1, with “Ethanol: c)” for “Ethanol: b)”, “in Miglyol 812 (Caprylic/Capric Triglycerides):” for “in Ethanol/Cyclopentasiloxane:”, “qsp 100%” for “qsp 75%”, “of Miglyol 812,” for “of absolute ethanol+25% of cyclopentasiloxane,”, “of 0.4%” for “of 0.02%”
# [4] = Stability of calcitriol in Cetiol SN (cetearyl isononanoate) (HPLC assay); details: for Measured concentration of calcitriol in % relative to T0: 30 ppm in Cetiol SN, 0.4% BHT
# Text: as §1, with “Ethanol: d)” for “Ethanol: b)”, “in Cetiol SN (Cetearyl Isononanoate):” for “in Ethanol/Cyclopentasiloxane:”, “qsp 100%” for “qsp 75%”, “of Cetiol SN (cetearyl isononanoate),” for “of absolute ethanol+25% of cyclopentasiloxane,”, “of 0.4%” for “of 0.02%”
structure (smiles),measurement,setting,value
C=C1/C(=C\C=C2/CCC[C@]3(C)[C@@H]([C@H](C)CCCC(C)(C)O)CC[C@@H]23)C[C@@H](O)C[C@@H]1O [calcitriol],Measured concentration of calcitriol in % relative to T0,"[1]; +4° C., T 2 weeks",99.2%
same,Measured concentration of calcitriol in % relative to T0,"[1]; +4° C., T 3 weeks",99.6%
same,Measured concentration of calcitriol in % relative to T0,"[1]; +4° C., T 4 weeks",97.5%
same,Measured concentration of calcitriol in % relative to T0,"[1]; +30° C., T 2 weeks",93.8%
same,Measured concentration of calcitriol in % relative to T0,"[1]; +30° C., T 4 weeks",93.3%
same,Measured concentration of calcitriol in % relative to T0,"[1]; −18° C., T 2 weeks",100.4%
same,Measured concentration of calcitriol in % relative to T0,"[1]; −18° C., T 3 weeks",101.3%
same,Measured concentration of calcitriol in % relative to T0,"[1]; −18° C., T 4 weeks",99.2%
same,Stability of calcitriol (in words),[1]; in an ethanol/cyclopentasiloxane mixture,good stability
same,Measured concentration of calcitriol in % relative to T0,"[2]; +4° C., T 1 week",97.7%
same,Measured concentration of calcitriol in % relative to T0,"[2]; +4° C., T 2 weeks",98.6%
same,Measured concentration of calcitriol in % relative to T0,"[2]; +4° C., T 3 weeks",98.1%
same,Measured concentration of calcitriol in % relative to T0,"[2]; +4° C., T 4 weeks",97.7%
same,Measured concentration of calcitriol in % relative to T0,"[2]; +30° C., T 2 weeks",93.4%
same,Measured concentration of calcitriol in % relative to T0,"[2]; +30° C., T 4 weeks",93.0%
same,Measured concentration of calcitriol in % relative to T0,"[2]; −18° C., T 1 week",100.9%
same,Measured concentration of calcitriol in % relative to T0,"[2]; −18° C., T 2 weeks",100.5%
same,Measured concentration of calcitriol in % relative to T0,"[2]; −18° C., T 3 weeks",99.5%
same,Measured concentration of calcitriol in % relative to T0,"[2]; −18° C., T 4 weeks",99.5%
same,Stability of calcitriol (in words),[2]; in ethanol,good stability
same,Measured concentration of calcitriol in % relative to T0,"[3]; +4° C., T 2 weeks",98.3%
same,Measured concentration of calcitriol in % relative to T0,"[3]; +4° C., T 4 weeks",105.2%
same,Measured concentration of calcitriol in % relative to T0,"[3]; +40° C., T 2 weeks",91%
same,Measured concentration of calcitriol in % relative to T0,"[3]; +40° C., T 4 weeks",93.8%
same,Measured concentration of calcitriol in % relative to T0,"[3]; RT, T 2 weeks",95.1%
same,Measured concentration of calcitriol in % relative to T0,"[3]; RT, T 4 weeks",98.0%
same,Stability of calcitriol (in words),[3]; in Miglyol 812,good stability
same,Measured concentration of calcitriol in % relative to T0,"[4]; +4° C., T 2 weeks",98.6%
same,Measured concentration of calcitriol in % relative to T0,"[4]; +4° C., T 4 weeks",98.1%
same,Measured concentration of calcitriol in % relative to T0,"[4]; +40° C., T 2 weeks",99.0%
same,Measured concentration of calcitriol in % relative to T0,"[4]; +40° C., T 4 weeks",98.9%
same,Measured concentration of calcitriol in % relative to T0,"[4]; RT, T 2 weeks",98.7%
same,Measured concentration of calcitriol in % relative to T0,"[4]; RT, T 4 weeks",98.4%
same,Stability of calcitriol (in words),[4]; in Cetiol SN,good stability
